Experimental data: patent US20240317706A1, “COMPOUNDS THAT MEDIATE PROTEIN DEGRADATION AND METHODS OF USE THEREOF” (Monte Rosa Therapeutics, Inc., priority 2021, published 2024)

Tests used:
CRBN-DDB1 = CRBN-DDB1 (Homo sapiens, UniProt Q96SW2); assay: Compound binding to CRBN by HTRF assay; settings: CRBN-DDB1 2.5 nM, Cy5-Thalidomide 100 nM, 30 min; Ki from geometric mean IC50 by Cheng-Prustoff transformation
Method in brief: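 HTRF displacement of Cy5-thalidomide probe (100 nM) from His-CRBN-DDB1 (2.5 nM) with anti-His terbium cryptate, in HEPES/NaCl/TCEP/EDTA/Tween20 buffer. 10-point 1:3 compound series, 30 min at ambient temperature; signal normalised to DMSO and lenalidomide controls, IC50 fitted and Ki derived by Cheng-Prusoff.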

CDK2 = molecular target: T1, CDK2 (Homo sapiens, UniProt P24941); assay: HiBiT assay (CDK2 degradation); type: cell-based; settings: HEK293 clonal line with CRISPR KI HiBiT tag on CDK2, 24 hours, HiBiT Lysis Reagent
T1 construct: HEK293 clonal lines with CRISPR KI HiBiT tag on CDK2 proteins; host or cells: HEK293 clonal line, CRISPR knock-in HiBiT-CDK2, stably expressing LgBiT
Procedure: HEK293 clonal lines with CRISPR KI HiBiT tag on CDK2 proteins and stably expressing LgBiT protein were obtained from Promega (Madison, WI). Cells were plated at 5000 cells per well using Multiflo (BioTek) in 384-well white solid bottom plates (Corning, 3570BC) in 25 ul volume in DMEM media (DMEM, high glucose, HEPES, no phenol red (ThermoFisher Scientific, 21063029)) containing 10% FBS (Corning, 35-075-CV), 1% Penicillin/Streptomycin (ThermoFisher Scientific, 15140-122). Cells were incubated for 16 hours at 37° C., 5% CO2. 75 nL of a compound at 30 μM were dosed into the plate using an Echo® 650 liquid handler (Labcyte). Cells were incubated at 37° C., 5% CO2 for 24 hours. 5 ul of HiBiT Lysis Reagent (Promega, N3030) is added using Combi Multidrop (ThermoFisher Scientific), plates are incubated for 15′ at 37° C., 5% CO2 and then signal was read on a Pherastar FSX using “LUM plus” optic module.
Analysis was performed in Scinamic (Scinamic, Cambridge, MA). Luminescence response (R) was calculated by the formula: response=100*(S−N)/(P−N) where S is the signal of the well, N and P the mean negative and positive control values respectively of the same plate. The luminescence response was then fitted in Scinamic using a 3-parameter agonist logistic fit (hillslope=1, EC50>0, top/bottom unconstrained).

Chain of CRBN-DDB1 (Q96SW2 whole entry): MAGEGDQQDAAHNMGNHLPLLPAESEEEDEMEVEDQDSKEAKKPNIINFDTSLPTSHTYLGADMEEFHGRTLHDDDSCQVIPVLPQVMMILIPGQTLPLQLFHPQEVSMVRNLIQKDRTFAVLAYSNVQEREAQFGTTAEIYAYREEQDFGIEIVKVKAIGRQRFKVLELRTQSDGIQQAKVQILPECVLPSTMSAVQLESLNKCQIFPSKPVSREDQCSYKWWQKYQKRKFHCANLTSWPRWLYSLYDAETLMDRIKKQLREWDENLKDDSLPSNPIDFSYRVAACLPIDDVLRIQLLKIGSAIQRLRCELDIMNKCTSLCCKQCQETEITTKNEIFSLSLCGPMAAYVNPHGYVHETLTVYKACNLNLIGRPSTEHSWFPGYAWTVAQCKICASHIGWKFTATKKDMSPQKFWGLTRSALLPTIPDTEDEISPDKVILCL
Chain of CRBN-DDB1 (Q16531 whole entry partner): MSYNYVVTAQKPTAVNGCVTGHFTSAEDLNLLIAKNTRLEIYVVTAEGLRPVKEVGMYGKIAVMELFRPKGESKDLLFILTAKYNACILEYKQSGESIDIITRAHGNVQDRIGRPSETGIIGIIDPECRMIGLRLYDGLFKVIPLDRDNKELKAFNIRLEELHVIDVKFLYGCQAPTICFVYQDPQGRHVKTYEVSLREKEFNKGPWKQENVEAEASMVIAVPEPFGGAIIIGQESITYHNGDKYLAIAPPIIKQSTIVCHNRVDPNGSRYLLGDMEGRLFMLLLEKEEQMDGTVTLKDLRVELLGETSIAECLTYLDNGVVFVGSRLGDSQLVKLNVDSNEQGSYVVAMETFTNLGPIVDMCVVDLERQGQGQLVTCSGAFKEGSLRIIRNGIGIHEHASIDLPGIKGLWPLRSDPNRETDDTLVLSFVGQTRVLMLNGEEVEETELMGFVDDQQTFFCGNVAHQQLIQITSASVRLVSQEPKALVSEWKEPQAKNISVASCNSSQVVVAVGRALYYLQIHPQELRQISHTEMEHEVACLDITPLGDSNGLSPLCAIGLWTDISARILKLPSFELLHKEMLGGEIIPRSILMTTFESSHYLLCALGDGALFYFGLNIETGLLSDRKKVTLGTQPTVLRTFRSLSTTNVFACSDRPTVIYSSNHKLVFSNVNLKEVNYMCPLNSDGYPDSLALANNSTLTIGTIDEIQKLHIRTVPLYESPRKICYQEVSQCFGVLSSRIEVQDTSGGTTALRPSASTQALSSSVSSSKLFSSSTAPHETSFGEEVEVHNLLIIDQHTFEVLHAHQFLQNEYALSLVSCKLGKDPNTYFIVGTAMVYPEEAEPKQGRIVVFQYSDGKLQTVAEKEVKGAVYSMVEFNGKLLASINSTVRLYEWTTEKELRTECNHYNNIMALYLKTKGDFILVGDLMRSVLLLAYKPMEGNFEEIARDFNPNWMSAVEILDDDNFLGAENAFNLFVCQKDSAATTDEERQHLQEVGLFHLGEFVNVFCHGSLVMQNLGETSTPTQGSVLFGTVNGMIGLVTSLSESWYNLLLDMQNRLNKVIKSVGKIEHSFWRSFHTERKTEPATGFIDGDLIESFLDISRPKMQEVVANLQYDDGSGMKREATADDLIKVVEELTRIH

Ki (CRBN-DDB1) | Dmax (CDK2) | Compound
≤ 100 nM | 10 to 50% | O=C1CCC(N2Cc3ccc(CNC(=O)O[C@@H]4CCC[C@H]4c4ccccc4)cc3C2=O)C(=O)N1 (mixture of isomers) [Compound 26, rac-(1R,2S)-2-phenylcyclopentyl N-{[2-(2,6-dioxopiperidin-3-yl)-3-oxo-2,3-dihydro-1H-isoindol-5-yl]methyl}carbamate]
100 to 1000 nM | ≤ 10% | O=C1CCC(N2Cc3ccc(CNC(=O)O[C@@H]4C[C@H]5CC[C@@H]4O5)cc3C2=O)C(=O)N1 (mixture of isomers) [Compound 27, rac-(1R,2S,4S)-7-oxabicyclo[2.2.1]heptan-2-yl N-{[2-(2,6-dioxopiperidin-3-yl)-3-oxo-2,3-dihydro-1H-isoindol-5-yl]methyl}carbamate]
100 to 1000 nM | ≤ 10% | O=C1CCC(N2Cc3ccc(CNC(=O)O[C@@H]4CO[C@@H]4c4ccccc4)cc3C2=O)C(=O)N1 (mixture of isomers) [Compound 37, rac-(2R,3R)-2-phenyloxetan-3-yl N-{[2-(2,6-dioxopiperidin-3-yl)-3-oxo-2,3-dihydro-1H-isoindol-5-yl]methyl}carbamate]
≤ 100 nM | 50 to 80% | O=C1CCC(N2Cc3ccc(CNC(=O)OC[C@@H]4C[C@@H]5C=C[C@H]4CC5)cc3C2=O)C(=O)N1 (mixture of isomers) [Compound 70, rac-[(1R,2R,4R)-bicyclo[2.2.2]oct-5-en-2-yl]methyl N-{[2-(2,6-dioxopiperidin-3-yl)-3-oxo-2,3-dihydro-1H-isoindol-5-yl]methyl}carbamate]
100 to 1000 nM | 10 to 50% | CC1(C)CCC(OC(=O)NCc2ccc3c(c2)C(=O)N(C2CCC(=O)NC2=O)C3)CC1 (stereo not drawn) [Compound 1, 4,4-dimethylcyclohexyl ((2-(2,6-dioxopiperidin-3-yl)-3-oxoisoindolin-5-yl)methyl)carbamate]
100 to 1000 nM | 50 to 80% | O=C1CCC(N2Cc3ccc(CNC(=O)OCC4CC5(CCC5)C4)cc3C2=O)C(=O)N1 (stereo not drawn) [Compound 2, spiro[3.3]heptan-2-ylmethyl ((2-(2,6-dioxopiperidin-3-yl)-3-oxoisoindolin-5-yl)methyl)carbamate]
100 to 1000 nM | 10 to 50% | O=C1CCC(N2Cc3ccc(CNC(=O)OC4CC5(CCC5)C4)cc3C2=O)C(=O)N1 (stereo not drawn) [Compound 3, spiro[3.3]heptan-2-yl ((2-(2,6-dioxopiperidin-3-yl)-3-oxoisoindolin-5-yl)methyl)carbamate]
100 to 1000 nM | 50 to 80% | O=C1CCC(N2Cc3ccc(CNC(=O)OC4CC5(CCCCC5)C4)cc3C2=O)C(=O)N1 (stereo not drawn) [Compound 4, spiro[3.5]nonan-2-yl ((2-(2,6-dioxopiperidin-3-yl)-3-oxoisoindolin-5-yl)methyl)carbamate]
 | 10 to 50% | O=C1CCC(N2Cc3ccc(CNC(=O)OCC45CC(c6ccccc6)(C4)C5)cc3C2=O)C(=O)N1 (stereo not drawn) [Compound 6, (3-phenylbicyclo[1.1.1]pentan-1-yl)methyl ((2-(2,6-dioxopiperidin-3-yl)-3-oxoisoindolin-5-yl)methyl)carbamate]
100 to 1000 nM | ≤ 10% | O=C1CCC(N2Cc3ccc(CNC(=O)OC4CCOC4)cc3C2=O)C(=O)N1 (stereo not drawn) [Compound 13, oxolan-3-yl N-{[2-(2,6-dioxopiperidin-3-yl)-3-oxo-2,3-dihydro-1H-isoindol-5-yl]methyl}carbamate]
100 to 1000 nM | 10 to 50% | O=C1CCC(N2Cc3ccc(CNC(=O)OC4CC4)cc3C2=O)C(=O)N1 (stereo not drawn) [Compound 14, cyclopropyl N-{[2-(2,6-dioxopiperidin-3-yl)-3-oxo-2,3-dihydro-1H-isoindol-5-yl]methyl}carbamate]
≤ 100 nM | 50 to 80% | CC1(C)CCC(OC(=O)NCc2ccc3c(c2)CN(C2CCC(=O)NC2=O)C3=O)CC1 (stereo not drawn) [Compound 15, 4,4-dimethylcyclohexyl N-{[2-(2,6-dioxopiperidin-3-yl)-1-oxo-2,3-dihydro-1H-isoindol-5-yl]methyl}carbamate]
100 to 1000 nM | ≤ 10% | CC1(COC(=O)NCc2ccc3c(c2)C(=O)N(C2CCC(=O)NC2=O)C3)COC1 (stereo not drawn) [Compound 16, (3-methyloxetan-3-yl)methyl N-{[2-(2,6-dioxopiperidin-3-yl)-3-oxo-2,3-dihydro-1H-isoindol-5-yl]methyl}carbamate]
100 to 1000 nM | 10 to 50% | O=C1CCC(N2Cc3ccc(CNC(=O)OC4CCc5ccccc5C4)cc3C2=O)C(=O)N1 (stereo not drawn) [Compound 17, 1,2,3,4-tetrahydronaphthalen-2-yl N-{[2-(2,6-dioxopiperidin-3-yl)-3-oxo-2,3-dihydro-1H-isoindol-5-yl]methyl}carbamate]
100 to 1000 nM | 10 to 50% | O=C1CCC(N2Cc3ccc(CNC(=O)OCC4CCc5ccccc54)cc3C2=O)C(=O)N1 (stereo not drawn) [Compound 18, (2,3-dihydro-1H-inden-1-yl)methyl N-{[2-(2,6-dioxopiperidin-3-yl)-3-oxo-2,3-dihydro-1H-isoindol-5-yl]methyl}carbamate]
≤ 100 nM | ≤ 10% | O=C1CCC(N2Cc3ccc(CNC(=O)OCC4OCCc5ccccc54)cc3C2=O)C(=O)N1 (stereo not drawn) [Compound 19, (3,4-dihydro-1H-2-benzopyran-1-yl)methyl N-{[2-(2,6-dioxopiperidin-3-yl)-3-oxo-2,3-dihydro-1H-isoindol-5-yl]methyl}carbamate]
≤ 100 nM | 10 to 50% | CC(C)C1CC(COC(=O)NCc2ccc3c(c2)C(=O)N(C2CCC(=O)NC2=O)C3)C1 (stereo not drawn) [Compound 20, [3-(propan-2-yl)cyclobutyl]methyl N-{[2-(2,6-dioxopiperidin-3-yl)-3-oxo-2,3-dihydro-1H-isoindol-5-yl]methyl}carbamate]
100 to 1000 nM | ≤ 10% | O=C1CCC(N2Cc3ccc(CNC(=O)OCCOC4CC4)cc3C2=O)C(=O)N1 (stereo not drawn) [Compound 21, 2-cyclopropoxyethyl N-{[2-(2,6-dioxopiperidin-3-yl)-3-oxo-2,3-dihydro-1H-isoindol-5-yl]methyl}carbamate]
100 to 1000 nM | ≤ 10% | CC1(COC(=O)NCc2ccc3c(c2)C(=O)N(C2CCC(=O)NC2=O)C3)CCCO1 (stereo not drawn) [Compound 22, (2-methyloxolan-2-yl)methyl N-{[2-(2,6-dioxopiperidin-3-yl)-3-oxo-2,3-dihydro-1H-isoindol-5-yl]methyl}carbamate]
100 to 1000 nM | ≤ 10% | CO[C@H]1C[C@@H](OC(=O)NCc2ccc3c(c2)C(=O)N(C2CCC(=O)NC2=O)C3)C1 (stereo partly drawn) [Compound 23, (1s,3s)-3-methoxycyclobutyl N-{[2-(2,6-dioxopiperidin-3-yl)-3-oxo-2,3-dihydro-1H-isoindol-5-yl]methyl}carbamate]
100 to 1000 nM | 10 to 50% | CC1(C)CCC1OC(=O)NCc1ccc2c(c1)C(=O)N(C1CCC(=O)NC1=O)C2 (stereo not drawn) [Compound 24, 2,2-dimethylcyclobutyl N-{[2-(2,6-dioxopiperidin-3-yl)-3-oxo-2,3-dihydro-1H-isoindol-5-yl]methyl}carbamate]
100 to 1000 nM | ≤ 10% | C[C@H]1C[C@@H]1COC(=O)NCc1ccc2c(c1)C(=O)N(C1CCC(=O)NC1=O)C2 (stereo partly drawn) [Compound 25, [(1S,2S)-2-methylcyclopropyl]methyl N-{[2-(2,6-dioxopiperidin-3-yl)-3-oxo-2,3-dihydro-1H-isoindol-5-yl]methyl}carbamate]
100 to 1000 nM | 10 to 50% | C[C@H](OC(=O)NCc1ccc2c(c1)C(=O)N(C1CCC(=O)NC1=O)C2)C1CC1 (stereo partly drawn) [Compound 28, (1S)-1-cyclopropylethyl N-{[2-(2,6-dioxopiperidin-3-yl)-3-oxo-2,3-dihydro-1H-isoindol-5-yl]methyl}carbamate]
≤ 100 nM | ≤ 10% | O=C1CCC(N2Cc3ccc(CNC(=O)OC[C@H]4CCCO4)cc3C2=O)C(=O)N1 (stereo partly drawn) [Compound 29, [(2R)-oxolan-2-yl]methyl N-{[2-(2,6-dioxopiperidin-3-yl)-3-oxo-2,3-dihydro-1H-isoindol-5-yl]methyl}carbamate]
100 to 1000 nM | ≤ 10% | C[C@H]1COC[C@@H]1OC(=O)NCc1ccc2c(c1)C(=O)N(C1CCC(=O)NC1=O)C2 (stereo partly drawn) [Compound 30, (3R,4S)-4-methyloxolan-3-yl N-{[2-(2,6-dioxopiperidin-3-yl)-3-oxo-2,3-dihydro-1H-isoindol-5-yl]methyl}carbamate]
100 to 1000 nM | 10 to 50% | CC1(C)CC(OC(=O)NCc2ccc3c(c2)C(=O)N(C2CCC(=O)NC2=O)C3)C1 (stereo not drawn) [Compound 31, 3,3-dimethylcyclobutyl N-{[2-(2,6-dioxopiperidin-3-yl)-3-oxo-2,3-dihydro-1H-isoindol-5-yl]methyl}carbamate]
